Measurements from article PMC8247405 (British Journal of Clinical Pharmacology, 2020).

How the values were obtained:
[1] = test system: renal transplant recipients; details: in vivo, cited from earlier work
type‐2 diabetes patients [2] = test system: type‐2 diabetes patients; parameters: species or system human; details: in vivo
type‐2 diabetes patients [3] = details: human, in vivo
type‐2 diabetes patients [4] = details: human, in vivo; remark: listed apart in the source
type‐2 diabetes patients [5] = details: human, in vivo; remark: listed apart in the source
type‐2 diabetes patients [6] = details: human, in vivo; cited from earlier work
patients = details: in vivo; cited from earlier work

## CCCCCCCCc1ccc(CCC(N)(CO)CO)cc1 [fingolimod]
[1]; 2.5 mg
  effect on creatinine clearance: creatinine clearance impairment
[1]
  lymphocyte reduction: 70–80%

## CCCc1nn(C)c2c(=O)[nH]c(-c3cc(S(=O)(=O)N4CCN(C)CC4)ccc3OCC)nc12 [sildenafil]
type‐2 diabetes patients [2]
  FMD change versus placebo Mean estimate [95% CI]: 0.88%
  FMD with treatment: about 5%
type‐2 diabetes patients [3]
  Patients with TEAE: Any class: 5 (41.7%) n (%)
  Patients with TEAE: Arthropod sting: 0 n (%)
  Patients with TEAE: Back pain: 1 (8.3%) n (%)
  Patients with TEAE: Cardiac disorders: 1 (8.3%) n (%)
  Patients with TEAE: Contusion: 0 n (%)
  Patients with TEAE: Cough: 0 n (%)
  Patients with TEAE: Diarrhoea: 2 (16.7%) n (%)
  Patients with TEAE: Dyspepsia: 1 (8.3%) n (%)
  Patients with TEAE: Epistaxis: 0 n (%)
  Patients with TEAE: Erythema: 2 (16.7%) n (%)
  Patients with TEAE: Gastroesophageal reflux disease: 1 (8.3%) n (%)
  Patients with TEAE: Gastrointestinal disorders: 3 (25.0%) n (%)
  Patients with TEAE: General disorders and administration site conditions: 0 n (%)
  Patients with TEAE: Headache: 2 (16.7%) n (%)
  Patients with TEAE: Infections and infestations: 1 (8.3%) n (%)
  Patients with TEAE: Injury, poisoning and procedural complications: 0 n (%)
  Patients with TEAE: Leading to treatment discontinuation: 1 (8.3%) n (%)
  Patients with TEAE: Musculoskeletal and connective tissue disorders: 1 (8.3%) n (%)
  Patients with TEAE: Musculoskeletal pain: 0 n (%)
  Patients with TEAE: Nasopharyngitis: 1 (8.3%) n (%)
  Patients with TEAE: Nausea: 0 n (%)
  Patients with TEAE: Neck pain: 0 n (%)
  Patients with TEAE: Nervous system disorders: 2 (16.7%) n (%)
  Patients with TEAE: Obstructive airways disorder: 0 n (%)
  Patients with TEAE: Oropharyngeal pain: 1 (8.3%) n (%)
  Patients with TEAE: Orthostatic intolerance: 0 n (%)
  Patients with TEAE: Otitis externa: 0 n (%)
  Patients with TEAE: Palpitations: 0 n (%)
  Patients with TEAE: Pruritus: 0 n (%)
  Patients with TEAE: Respiratory, thoracic and mediastinal disorders: 1 (8.3%) n (%)
  Patients with TEAE: Severe AE: 0 n (%)
  Patients with TEAE: Skin abrasion: 0 n (%)
  Patients with TEAE: Skin and subcutaneous tissue disorders: 2 (16.7%) n (%)
  Patients with TEAE: Traumatic haematoma: 0 n (%)
  Patients with TEAE: Ventricular extrasystoles: 1 (8.3%) n (%)
  Patients with TEAE: Vessel puncture site haematoma: 0 n (%)
  Patients with TEAE: Vomiting: 0 n (%)
type‐2 diabetes patients [4]
  heart rate change: no change
  mean heart rate increase: 3–6 beats/min
type‐2 diabetes patients [5]
  vasodilatory effect (blood pressure, BAD): no blood pressure‐lowering or BAD increase
type‐2 diabetes patients [6]
  FMD increase from baseline compared to placebo: ≥ 3%
  FMD increases from baseline: 5–6%
  effect on FMD: failed to improve FMD

## CCOC(=O)N1c2ccc(C(F)(F)F)cc2[C@@H](N(Cc2cc(C(F)(F)F)cc(C(F)(F)F)c2)C(=O)OC)C[C@H]1CC [torcetrapib]
patients
  effect on FMD: pharmacological decrease in FMD
